Data on three molecules can be found in patent US11415579B2, “Assay for measuring a rate of reaction between a target and a ligand candidate” (Imperial College Innovations Ltd., priority 2016, dated 2022).

Assay [1] concerns the target T1, Cdk2(T182C) (C177A) (Homo sapiens, UniProt P24941, C177A/T182C).
T1 construct: poly-histidine; made in house; host or cells: E. coli
Nature of the assay: Kinetic thiol consumption assay with Cdk2 mutant T182C. Also on record: key to Rate enhancement, Cdk2 T182C: rate constant with Cdk2 ÷ rate constant with model thiol (fold). The assay is classed as binding. As to conditions: additional mutation C177A; for Rate constant with Cdk2 T182C: Protein: Cdk2, cysteine position T182C, in h^-1. An outline of the steps: (§1)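 Read-out is fluorescence at 380/470 nm, taken after 1 h at room temperature and normalized to a DMSO/thiol-only control over time. Thiol (5 μM Cdk2 mutant or model thiol) was in degassed pH 8 phosphate buffer with 2% v/v TCEP beads. Acrylamide rate constants for Cdk2 were divided by those with model thiol.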

Assay [2] can be described thus: Kinetic thiol consumption assay with model thiol glutathione. The assay is classed as physicochemical. Also on record: Rate constant with glutathione (k(GSH)): unit not given here. Conditions: for Rate constant with glutathione (k(GSH)): 500 μM ligand, 5 μM thiol, phosphate buffer pH 8; for Rate constant with Glutathione: Protein: Glutathione, cysteine position NA, in h-1. An outline of the steps: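 First, 5 μM glutathione in degassed phosphate buffer (pH 8) receives immobilized TCEP beads (2% v/v). Then acrylamide is added and plates incubate 1 h at room temperature. Finally, fluorescence (380/470 nm) is normalized and fitted to first-order decay for rate constants.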

Assay [3] addresses T2, human cyclin-dependent kinase 2 (Cdk2) (Homo sapiens, UniProt P24941).
T2 construct: poly-histidine; made in house; host or cells: E. coli
The assay can be described thus: Kinetic thiol consumption assay with wild type Cdk2 (C177). Conditions: for Rate constant with Cdk2 (k(Cdk2)): 500 μM ligand, 5 μM thiol, phosphate buffer pH 8; for Rate enhancement, Cdk2 WT: no additional mutations; for Rate constant with Cdk2 WT: Protein: Cdk2, cysteine position WT, in h^-1; for k(Cdk2)/k(Cdk2_mut) rate enhancement: model thiol Cdk2[C177A, F80C, K278C]; for k(Cdk2)/k(GSH) rate enhancement: model thiol glutathione. The assay is classed as binding. Set-up: key to Rate enhancement, Cdk2 WT: k(Cdk2) divided by k(model thiol); Rate constant with Cdk2 (k(Cdk2)): unit not given here. An outline of the steps:
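Rate constants came from first-order exponential decay fits of normalized fluorescence against time, with thiol (5 μM) in degassed pH 8 phosphate buffer containing 2% v/v TCEP beads and reads after 1 h at room temperature.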

The target of assay [4] is T3, Cdk2[C177A, F80C, K278C] (Homo sapiens, UniProt P24941, C177A/F80C/K278C).
T3 construct: poly-histidine; made in house; host or cells: E. coli
Nature of the assay: Kinetic thiol consumption assay with mutant Cdk2 as model thiol. The assay is classed as binding. Also on record: unit not given here. Conditions: 500 μM ligand, 5 μM thiol, phosphate buffer pH 8. In short, it runs like this:
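First-order rate constants were derived by exponential-decay fitting of DMSO/thiol-normalized fluorescence (380/470 nm) over time at room temperature. Thiol was 5 μM E. coli-expressed His-tagged Cdk2 mutant C177A/F80C/K278C in degassed pH 8 phosphate buffer containing 2% v/v TCEP beads.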

Assay [5] deals with T4, Cdk2(N272C) (C177A) (Homo sapiens, UniProt P24941, C177A/N272C).
T4 construct: poly-histidine; made in house; host or cells: E. coli
The assay can be described thus: Kinetic thiol consumption assay with Cdk2 mutant N272C. Also on record: key to Rate enhancement, Cdk2 N272: rate constant with Cdk2 ÷ rate constant with model thiol (fold). Conditions: for Rate enhancement, Cdk2 N272: Cdk2 N272, additional mutation C177A; for Rate constant with Cdk2 N272C: Protein: Cdk2, cysteine position N272C, additional mutation C177A, in h^-1. The assay is classed as binding. An outline of the steps: as §1

The target in assay [6] is T5, Cdk2(C177A, F80C) (Homo sapiens, UniProt P24941, C177A/F80C).
T5 construct: poly-histidine; made in house; host or cells: E. coli
Nature of the assay: Kinetic thiol consumption assay with Cdk2 mutant F80C, incl. kobs versus concentration (Kd, k2). The assay is classed as binding. Also on record: key to Rate enhancement, Cdk2 F80C: Cdk2 rate constant divided by model-thiol rate constant. Conditions: additional mutation C177A; for Rate constant with Cdk2 F80C: Protein: Cdk2, cysteine position F80C, in h^-1. An outline of the steps: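 His-tagged Cdk2(C177A/F80C) from E. coli or model thiol, 5 μM in degassed phosphate buffer pH 8 with TCEP beads, reacted with acrylamide ligands; fluorescence (ex/em 380/470 nm) normalized to DMSO control and fitted to first-order decay for kobs. Kd and k2 obtained from hyperbolic fit of kobs versus ligand concentration.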

The target in assay [7] is T6, Cdk2(H71C) (C177A) (Homo sapiens, UniProt P24941, C177A/H71C).
T6 construct: poly-histidine; made in house; host or cells: E. coli
Nature of the assay: Kinetic thiol consumption assay with Cdk2 mutant H71C. The assay is classed as binding. Set-up: key to Rate enhancement, Cdk2 H71C: rate constant with Cdk2 ÷ rate constant with model thiol (fold). As to conditions: additional mutation C177A; for Rate constant with Cdk2 H71C: Protein: Cdk2, cysteine position H71C, in h^-1. An outline of the steps:
as §1

Assay [8] has as its target T7, Cdk2(R122C) (C177A) (Homo sapiens, UniProt P24941, C177A/R122C).
T7 construct: poly-histidine; made in house; host or cells: E. coli
The assay can be described thus: Kinetic thiol consumption assay with Cdk2 mutant R122C. The assay is classed as binding. Set-up: key to Rate enhancement, Cdk2 R122C: rate constant with Cdk2 ÷ rate constant with model thiol (fold). As to conditions: additional mutation C177A; for Rate constant with Cdk2 R122C: Protein: Cdk2, cysteine position R122C, in h-1. In short, it runs like this:
as §1

For assay [9], the target named is T8, Cdk2(S181C) (C177A) (Homo sapiens, UniProt P24941, C177A/S181C).
T8 construct: poly-histidine; made in house; host or cells: E. coli
The assay can be described thus: Kinetic thiol consumption assay with Cdk2 mutant S181C. The assay is classed as binding. Set-up: key to Rate enhancement, Cdk2 S181C: rate constant with Cdk2 ÷ rate constant with model thiol (fold). As to conditions: additional mutation C177A; for Rate constant with Cdk2 S181C: Protein: Cdk2, cysteine position S181C, in h^-1. In short, it runs like this:
as §1

Assay [10] deals with T9, Cdk2(S276C) (C177A) (Homo sapiens, UniProt P24941, C177A/S276C).
T9 construct: poly-histidine; made in house; host or cells: E. coli
The assay can be described thus: Kinetic thiol consumption assay with Cdk2 mutant S276C. The assay is classed as binding. Also on record: key to Rate enhancement, Cdk2 S276C: rate constant with Cdk2 ÷ rate constant with model thiol (fold). Conditions: additional mutation C177A; for Rate constant with Cdk2 S276C: Protein: Cdk2, cysteine position S276C, in h^-1. An outline of the steps:
as §1

As to `C=CC(=O)N1CC2(CCC2)c2c(F)cccc21` [CA-188], in [1], the “Rate enhancement, Cdk2 T182C” value was 1.883 and the “Rate constant with Cdk2 T182C” value was 0.3741. Also, in assay [2], the “Rate constant with glutathione (k(GSH))” value turned out to be 0.1903 and the “Rate constant with Glutathione” value came to 0.1987. In assay [3], the “Rate constant with Cdk2 (k(Cdk2))” value is listed as 0.55; the “Rate enhancement, Cdk2 WT” value was 2.768; the “Rate constant with Cdk2 WT” value is reported as 0.55; the “k(Cdk2)/k(Cdk2_mut) rate enhancement” value came out at 0.4737. In addition, the “k(Cdk2)/k(GSH) rate enhancement” value in assay [3] worked out at 2.89. Moreover, the “Rate constant with Cdk2[C177A, F80C, K278C] (k(Cdk2_mut))” value (“Rate constant … (k(Cdk2_mut))” below) in assay [4] is 1.161. In assay [5], the “Rate enhancement, Cdk2 N272” value is 0.3173 and the “Rate constant with Cdk2 N272C” value was determined as 0.06304. In [6], the “Rate enhancement, Cdk2 F80C” value came out at 2.57 and the “Rate constant with Cdk2 F80C” value came to 0.5106. In assay [7], the “Rate enhancement, Cdk2 H71C” value is given as 1.537 and the “Rate constant with Cdk2 H71C” value was 0.3055. Also, in assay [8], the “Rate enhancement, Cdk2 R122C” value amounted to 0.08933 and the “Rate constant with Cdk2 R122C” value came to 0.01775. Besides, in assay [9], the “Rate enhancement, Cdk2 S181C” value is listed as 0.2482 and the “Rate constant with Cdk2 S181C” value worked out at 0.04931. Further, in assay [10], the “Rate enhancement, Cdk2 S276C” value stood at 0.03818 and the “Rate constant with Cdk2 S276C” value amounted to 0.007587.
Consider `C=CC(=O)N1CC2CCN(Cc3ccccc3)C2C1` (centres unmarked) [CA-190], for which, in assay [1], the “Rate enhancement, Cdk2 T182C” value worked out at 0.8134 and the “Rate constant with Cdk2 T182C” value was 0.01138. Moreover, in [2], the “Rate constant with glutathione (k(GSH))” value stood at 0.01268 and the “Rate constant with Glutathione” value was found to be 0.01399. Besides, in assay [3], the “Rate constant with Cdk2 (k(Cdk2))” value is recorded as 0.00347; the “Rate enhancement, Cdk2 WT” value was 0.248; the “Rate constant with Cdk2 WT” value is given as 0.003469; the “k(Cdk2)/k(Cdk2_mut) rate enhancement” value came out at 1.136. Further, the “k(Cdk2)/k(GSH) rate enhancement” value in [3] came to 0.2735. Besides, the “Rate constant … (k(Cdk2_mut))” value in assay [4] worked out at 0.00305. In assay [5], the “Rate enhancement, Cdk2 N272” value was determined as 0.2334 and the “Rate constant with Cdk2 N272C” value is 0.003265. In [6], the “Rate enhancement, Cdk2 F80C” value is given as 0.3783 and the “Rate constant with Cdk2 F80C” value was 0.005293. Also, the “Rate enhancement, Cdk2 H71C” value in assay [7] turned out to be 0. Besides, in [8], the “Rate enhancement, Cdk2 R122C” value stood at 0.501 and the “Rate constant with Cdk2 R122C” value is listed as 0.007009. Also, in assay [9], the “Rate enhancement, Cdk2 S181C” value is 0.2548 and the “Rate constant with Cdk2 S181C” value turned out to be 0.003565. Also, in assay [10], the “Rate enhancement, Cdk2 S276C” value is 0.3527 and the “Rate constant with Cdk2 S276C” value turned out to be 0.004934.
As for `C=CC(=O)N(CCCN1CCOCC1)Cc1ccncc1` [CA-192], in [1], the “Rate enhancement, Cdk2 T182C” value is listed as 0.4571 and the “Rate constant with Cdk2 T182C” value stood at 0.006134. Further, in assay [2], the “Rate constant with glutathione (k(GSH))” value was 0.00676 and the “Rate constant with Glutathione” value is 0.01342. In addition, in assay [3], the “Rate constant with Cdk2 (k(Cdk2))” value came to 0.00341; the “Rate enhancement, Cdk2 WT” value is on record as 0.4352; the “Rate constant with Cdk2 WT” value was 0.00584; the “k(Cdk2)/k(Cdk2_mut) rate enhancement” value came out at 0.7625. Further, in assay [3], the “k(Cdk2)/k(GSH) rate enhancement” value was found to be 0.5048. For the same molecule, the “Rate constant … (k(Cdk2_mut))” value in [4] was found to be 0.00447. In addition, in assay [5], the “Rate enhancement, Cdk2 N272” value amounted to 0.3716 and the “Rate constant with Cdk2 N272C” value is listed as 0.004987. In assay [6], the “Rate enhancement, Cdk2 F80C” value was determined as 0.1157 and the “Rate constant with Cdk2 F80C” value amounted to 0.001553. In addition, in assay [7], the “Rate enhancement, Cdk2 H71C” value was determined as 0.218 and the “Rate constant with Cdk2 H71C” value turned out to be 0.002926. In addition, in assay [8], the “Rate enhancement, Cdk2 R122C” value was determined as 0.136 and the “Rate constant with Cdk2 R122C” value is 0.001825. In addition, in assay [9], the “Rate enhancement, Cdk2 S181C” value is given as 0.1475 and the “Rate constant with Cdk2 S181C” value is listed as 0.00198. Also, in [10], the “Rate enhancement, Cdk2 S276C” value turned out to be 0.08092 and the “Rate constant with Cdk2 S276C” value amounted to 0.001086.
